From patent US8404679B2, “Pyrrolidine derivatives as NK2 receptor antagonists” (Hoffmann-La Roche Inc., priority 2008, dated 2013)

Biological target: T1, human NK2 receptor (Homo sapiens, UniProt P21452)
T1 construct: purchased Perkin Elmer biosignal Inc. 6110510
T1 sequence (P21452 1-398): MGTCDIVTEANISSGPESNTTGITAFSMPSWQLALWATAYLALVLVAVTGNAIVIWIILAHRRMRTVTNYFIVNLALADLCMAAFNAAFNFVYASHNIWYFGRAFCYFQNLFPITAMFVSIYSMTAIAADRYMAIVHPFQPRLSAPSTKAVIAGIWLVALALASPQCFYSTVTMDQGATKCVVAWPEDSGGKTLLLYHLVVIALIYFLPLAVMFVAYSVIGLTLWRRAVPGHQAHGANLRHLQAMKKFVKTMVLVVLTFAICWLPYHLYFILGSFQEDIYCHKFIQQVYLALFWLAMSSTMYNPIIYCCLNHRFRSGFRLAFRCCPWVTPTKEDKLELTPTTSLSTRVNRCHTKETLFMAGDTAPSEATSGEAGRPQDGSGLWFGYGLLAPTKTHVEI
Assay: [3H]SR48968 competition binding assay
Conditions: [3H]SR48968 displacement, membranes of CHO cells stably expressing recombinant human NK2 receptor; Ki from IC50 by Cheng-Prussoff
Description: [^3H]SR48968 Competition Binding Assay
hNK2 receptor binding experiment were performed using [^3H]SR48968 (Catalog No. TRK398, specific activity: 27.0 Ci/mmol, Amersham, GE Healthcare UK limited, Buckinghamshire, UK) and membrane isolated from CHO cells stably expressing recombinant human NK2 receptor (product No. 6110510, Perkin Elmer biosignal Inc., Shelton, Conn., USA). After thawing, the membrane homogenates were centrifuged at 48,000×g for 10 min at 4° C., the pellets were resuspended in the 50 mM Tris-HCl, 3 mM MnCl2, 4 μg/mL Chymostatin, 0.04% BSA binding buffer at pH 7.4 to a final assay concentration of 6.5 μg protein/well. For inhibition experiments, membranes were incubated with [^3H]SR48968 at a concentration equal to KD value of radioligand and 10 concentrations of the inhibitory compound (0.0003-10 μM) (in a total reaction volume of 500 μl) for 75 min at room temperature (RT). At the end of the incubation, membranes were filtered onto unitfilter (96-well white microplate with bonded GF/C filter preincubated 1 h in 0.3% polyethylenimine, Packard BioScience, Meriden, Conn.) with a Filtermate 196 harvester (Packard BioScience) and washed 4 times with ice-cold 50 mM Tris-HCl, pH 7.4 buffer. Nonspecific binding was measured in the presence of 10 μM 1-{2-[(R)-3-(3,4-dichloro-phenyl)-1-(3,4,5-trimethoxy-benzoyl)-pyrrolidin-3-yl]-ethyl}-4-phenyl-piperidine-4-carboxylic acid amide. The radioactivity on the filter was counted (5 min) on a Packard Top-count microplate scintillation counter with quenching correction after addition of 45 μl of microscint 40 (Canberra Packard S. A., Zürich, Switzerland) and shaking for 1 h. Inhibition curves were fitted according to the Hill equation: y=100/(1+(x/IC50)^nH), where nH=slope factor using Excel-fit 4 software (Microsoft). IC50 values were derived from the inhibition curve and the affinity constant (Ki) values were calculated using the Cheng-Prussoff equation Ki=IC50/(1+[L]/KD) where [L] was the concentration of radioligand and KD was its dissociation constant at the receptor, derived from the saturation isotherm.

| SMILES | Ki [nM] |
| --- | --- |
| CN(C(=O)c1ccc(OC(F)(F)F)cc1)[C@@H]1CN(C(=O)N2CCN(S(C)(=O)=O)CC2)C[C@H]1c1ccc(Cl)c(Cl)c1 (racemic) [Example 16, rac-N-[(3S,4R)-4-(3,4-Dichloro-phenyl)-1-(4-methanesulfonyl-piperazine-1-carbonyl)-pyrrolidin-3-yl]-N-methyl-4-trifluoromethoxy-benzamide] | 5.09 |
| CN(C(=O)c1cccc(F)c1)[C@@H]1CN(C(=O)N2CCN(S(C)(=O)=O)CC2)C[C@H]1c1ccc(Cl)c(Cl)c1 (racemic) [Example 17, rac-N-[(3S,4R)-4-(3,4-Dichloro-phenyl)-1-(4-methanesulfonyl-piperazine-1-carbonyl)-pyrrolidin-3-yl]-3-fluoro-N-methyl-benzamide] | 95.3 |
| CN(C(=O)c1cc(F)cc(C(F)(F)F)c1)[C@@H]1CN(C(=O)N2CCN(S(C)(=O)=O)CC2)C[C@H]1c1ccc(Cl)c(Cl)c1 (racemic) [Example 18, rac-N-[(3S,4R)-4-(3,4-Dichloro-phenyl)-1-(4-methanesulfonyl-piperazine-1-carbonyl)-pyrrolidin-3-yl]-3-fluoro-N-methyl-5-trifluoromethyl-benzamide] | 20.7 |
| CN(C(=O)c1ccc(C(F)(F)F)c(F)c1)[C@@H]1CN(C(=O)N2CCN(S(C)(=O)=O)CC2)C[C@H]1c1ccc(Cl)c(Cl)c1 (racemic) [Example 20, rac-N-[(3S,4R)-4-(3,4-Dichloro-phenyl)-1-(4-methanesulfonyl-piperazine-1-carbonyl)-pyrrolidin-3-yl]-3-fluoro-N-methyl-4-trifluoromethyl-benzamide] | 2.44 |
| CN(C(=O)c1cccc(Cl)c1F)[C@@H]1CN(C(=O)N2CCN(S(C)(=O)=O)CC2)C[C@H]1c1ccc(Cl)c(Cl)c1 (racemic) [Example 21, rac-3-Chloro-N-[(3S,4R)-4-(3,4-dichloro-phenyl)-1-(4-methanesulfonyl-piperazine-1-carbonyl)-pyrrolidin-3-yl]-2-fluoro-N-methyl-benzamide] | 13.1 |
| CN(C(=O)c1cccc(C(F)(F)F)c1F)[C@@H]1CN(C(=O)N2CCN(S(C)(=O)=O)CC2)C[C@H]1c1ccc(Cl)c(Cl)c1 (racemic) [Example 22, rac-N-[(3S,4R)-4-(3,4-Dichloro-phenyl)-1-(4-methanesulfonyl-piperazine-1-carbonyl)-pyrrolidin-3-yl]-2-fluoro-N-methyl-3-trifluoromethyl-benzamide] | 4.63 |
| CN(C(=O)c1ccc2occc2c1)[C@@H]1CN(C(=O)N2CCN(S(C)(=O)=O)CC2)C[C@H]1c1ccc(Cl)c(Cl)c1 (racemic) [Example 23, rac-Benzofuran-5-carboxylic acid [(3S,4R)-4-(3,4-dichloro-phenyl)-1-(4-methanesulfonyl-piperazine-1-carbonyl)-pyrrolidin-3-yl]-methyl-amide] | 10.2 |
| CN(C)c1ccc(C(=O)N(C)[C@@H]2CN(C(=O)N3CCN(S(C)(=O)=O)CC3)C[C@H]2c2ccc(Cl)c(Cl)c2)cc1 (racemic) [Example 24, rac-N-[(3S,4R)-4-(3,4-Dichloro-phenyl)-1-(4-methanesulfonyl-piperazine-1-carbonyl)-pyrrolidin-3-yl]-4-dimethylamino-N-methyl-benzamide] | 1.72 |
| Cc1cc(C(=O)N(C)[C@@H]2CN(C(=O)N3CCN(S(C)(=O)=O)CC3)C[C@H]2c2ccc(Cl)c(Cl)c2)ccc1F (racemic) [Example 25, rac-N-[(3S,4R)-4-(3,4-Dichloro-phenyl)-1-(4-methanesulfonyl-piperazine-1-carbonyl)-pyrrolidin-3-yl]-4-fluoro-3,N-dimethyl-benzamide] | 6.01 |
| COc1ccc(C(=O)N(C)[C@@H]2CN(C(=O)N3CCN(S(C)(=O)=O)CC3)C[C@H]2c2ccc(Cl)c(Cl)c2)cc1F (racemic) [Example 26, rac-N-[(3S,4R)-4-(3,4-Dichloro-phenyl)-1-(4-methanesulfonyl-piperazine-1-carbonyl)-pyrrolidin-3-yl]-3-fluoro-4-methoxy-N-methyl-benzamide] | 9.45 |
| CN(C(=O)c1ccc(F)c(F)c1)[C@@H]1CN(C(=O)N2CCN(S(C)(=O)=O)CC2)C[C@H]1c1ccc(Cl)c(Cl)c1 (racemic) [Example 27, rac-N-[(3S,4R)-4-(3,4-Dichloro-phenyl)-1-(4-methanesulfonyl-piperazine-1-carbonyl)-pyrrolidin-3-yl]-3,4-difluoro-N-methyl-benzamide] | 16.2 |
| CN(C(=O)c1ccc2c(c1)OC(F)(F)O2)[C@@H]1CN(C(=O)N2CCN(S(C)(=O)=O)CC2)C[C@H]1c1ccc(Cl)c(Cl)c1 (racemic) [Example 28, rac-2,2-Difluoro-benzo[1,3]dioxole-5-carboxylic acid [(3S,4R)-4-(3,4-dichloro-phenyl)-1-(4-methanesulfonyl-piperazine-1-carbonyl)-pyrrolidin-3-yl]-methyl-amide] | 2.04 |
| CN(C(=O)c1ccc(-n2cccc2)cc1)[C@@H]1CN(C(=O)N2CCN(S(C)(=O)=O)CC2)C[C@H]1c1ccc(Cl)c(Cl)c1 (racemic) [Example 30, rac-N-[(3S,4R)-4-(3,4-Dichloro-phenyl)-1-(4-methanesulfonyl-piperazine-1-carbonyl)-pyrrolidin-3-yl]-N-methyl-4-pyrrol-1-yl-benzamide] | 4.59 |
| CN(C(=O)c1ccc2c(c1)CCO2)[C@@H]1CN(C(=O)N2CCN(S(C)(=O)=O)CC2)C[C@H]1c1ccc(Cl)c(Cl)c1 (racemic) [Example 31, rac-2,3-Dihydro-benzofuran-5-carboxylic acid [(3S,4R)-4-(3,4-dichloro-phenyl)-1-(4-methanesulfonyl-piperazine-1-carbonyl)-pyrrolidin-3-yl]-methyl-amide] | 14.8 |
| CN(C(=O)c1ccc(F)c(Cl)c1)[C@@H]1CN(C(=O)N2CCN(S(C)(=O)=O)CC2)C[C@H]1c1ccc(Cl)c(Cl)c1 (racemic) [Example 32, rac-3-Chloro-N-[(3S,4R)-4-(3,4-dichloro-phenyl)-1-(4-methanesulfonyl-piperazine-1-carbonyl)-pyrrolidin-3-yl]-4-fluoro-N-methyl-benzamide] | 4.57 |
| COc1ccc(C(=O)N(C)[C@@H]2CN(C(=O)N3CCN(S(C)(=O)=O)CC3)C[C@H]2c2ccc(Cl)c(Cl)c2)cc1Cl (racemic) [Example 33, rac-3-Chloro-N-[(3S,4R)-4-(3,4-dichloro-phenyl)-1-(4-methanesulfonyl-piperazine-1-carbonyl)-pyrrolidin-3-yl]-4-methoxy-N-methyl-benzamide] | 8.57 |
| CN(C(=O)c1ccc2nccnc2c1)[C@@H]1CN(C(=O)N2CCN(S(C)(=O)=O)CC2)C[C@H]1c1ccc(Cl)c(Cl)c1 (racemic) [Example 34, rac-Quinoxaline-6-carboxylic acid [(3S,4R)-4-(3,4-dichloro-phenyl)-1-(4-methanesulfonyl-piperazine-1-carbonyl)-pyrrolidin-3-yl]-methyl-amide] | 76.7 |
| CC(C#N)c1cccc(C(=O)N(C)[C@@H]2CN(C(=O)N3CCN(S(C)(=O)=O)CC3)C[C@H]2c2ccc(Cl)c(Cl)c2)c1 (mixture of isomers) [Example 35, rac-3-(Cyano-methyl-methyl)-N-[(3S,4R)-4-(3,4-dichloro-phenyl)-1-(4-methanesulfonyl-piperazine-1-carbonyl)-pyrrolidin-3-yl]-N-methyl-benzamide] | 28.5 |
| CN(C(=O)c1ccc(F)c(C(F)(F)F)c1)[C@@H]1CN(C(=O)N2CCN(S(C)(=O)=O)CC2)C[C@H]1c1ccc(Cl)c(Cl)c1 (racemic) [Example 36, rac-N-[(3S,4R)-4-(3,4-Dichloro-phenyl)-1-(4-methanesulfonyl-piperazine-1-carbonyl)-pyrrolidin-3-yl]-4-fluoro-N-methyl-3-trifluoromethyl-benzamide] | 3.59 |
| COc1ccc(C(=O)N(C)[C@@H]2CN(C(=O)N3CCN(S(C)(=O)=O)CC3)C[C@H]2c2ccc(Cl)c(Cl)c2)cc1 (racemic) [Example 37, rac-N-[(3S,4R)-4-(3,4-Dichloro-phenyl)-1-(4-methanesulfonyl-piperazine-1-carbonyl)-pyrrolidin-3-yl]-4-methoxy-N-methyl-benzamide] | 8.89 |
